Assay results: paper PMC7830924, “Discovery of Natural Inhibitors of Cholinesterases from Hydrangea: In Vitro and In Silico Approaches” (Nutrients, 2021)

Legend:
Trypsin = Trypsin inhibition assay (enzyme selectivity); type: biochemical; conditions: mean ± SD of triplicate
Experimental: (§1) Cholinesterases, trypsin, chymotrypsin, elastase and BACE1, assays were performed according to the previous methods. AChE, BChE, trypsin, chymotrypsin and elastase were assayed according to the manual depicted in the reference using ACh iodide, butyrylthiocholine chloride, N-benzoyl-L-Arg-pNA, N-benzoyl-L-Tyr-pNA and N-succinyl-Ala-Ala-Ala-pNA as substrates, respectively. BACE1 assay was achieved using a Rh-[…]-Quencher as a substrate. […] The inhibitory constant (Ki) was obtained by Dixon plot, and Vmax and Km were defined by Lineweaver–Burk plots. These kinetic parameters were calculated using the SigmaPlot™ (version 12.3, Systat Software, Inc., San Jose, CA, USA).

AChE = target: T1, AChE (Homo sapiens, UniProt P22303); experiment: biochemical; conditions: for AChE Inhibition Type: determined by Dixon and Lineweaver–Burk plots; for IC50: mean ± S.D. of triplicate experiments, substrate ACh iodide; for Ki: obtained by Dixon plot
T1 construct: purchased Sigma-Aldrich
Experimental: as §1

Elastase = Elastase inhibition assay (enzyme selectivity); type: biochemical; conditions: mean ± SD of triplicate
Experimental: as §1

BChE = target: T2, BChE (Homo sapiens, UniProt P06276); experiment: BChE inhibition assay and kinetic study; type: biochemical; conditions: for BChE Inhibition Type: determined by Dixon and Lineweaver–Burk plots; for IC50: mean ± S.D. of triplicate experiments, substrate butyrylthiocholine chloride; for Ki: obtained by Dixon plot
T2 construct: purchased Sigma-Aldrich
Experimental: as §1

Chymotrypsin = tested on: T3, Chymotrypsin; experiment: Chymotrypsin inhibition assay (enzyme selectivity); type: biochemical; conditions: mean ± SD of triplicate
T3 construct: purchased Sigma-Aldrich
Experimental: as §1

BACE1 = tested on: T4, BACE1; experiment: BACE1 FRET assay (enzyme selectivity); type: biochemical; conditions: mean ± SD of triplicate
T4 construct: purchased Pan Vera
Experimental: A beta-site APP cleaving enzyme 1 (BACE1) fluorescence resonance energy transfer (FRET) assay kit was purchased from Pan Vera (Madison, WI, USA).
as §1

T1 sequence (P22303 32-614): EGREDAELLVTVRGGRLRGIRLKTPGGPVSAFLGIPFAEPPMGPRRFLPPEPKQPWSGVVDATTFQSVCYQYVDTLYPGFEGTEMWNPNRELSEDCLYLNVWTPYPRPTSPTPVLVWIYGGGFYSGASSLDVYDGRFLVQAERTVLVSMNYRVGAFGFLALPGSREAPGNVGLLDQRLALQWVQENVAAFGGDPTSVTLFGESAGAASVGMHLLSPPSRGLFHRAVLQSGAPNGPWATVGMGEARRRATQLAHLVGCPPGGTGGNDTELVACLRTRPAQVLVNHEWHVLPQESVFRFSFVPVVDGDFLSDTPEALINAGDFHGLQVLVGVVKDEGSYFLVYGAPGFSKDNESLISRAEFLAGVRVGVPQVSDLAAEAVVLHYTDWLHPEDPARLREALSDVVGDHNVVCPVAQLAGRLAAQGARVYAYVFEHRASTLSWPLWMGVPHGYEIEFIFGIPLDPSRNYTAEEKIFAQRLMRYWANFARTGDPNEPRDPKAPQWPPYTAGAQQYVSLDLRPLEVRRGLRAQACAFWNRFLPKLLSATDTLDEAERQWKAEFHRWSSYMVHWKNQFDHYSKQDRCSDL
T2 sequence (P06276 29-602): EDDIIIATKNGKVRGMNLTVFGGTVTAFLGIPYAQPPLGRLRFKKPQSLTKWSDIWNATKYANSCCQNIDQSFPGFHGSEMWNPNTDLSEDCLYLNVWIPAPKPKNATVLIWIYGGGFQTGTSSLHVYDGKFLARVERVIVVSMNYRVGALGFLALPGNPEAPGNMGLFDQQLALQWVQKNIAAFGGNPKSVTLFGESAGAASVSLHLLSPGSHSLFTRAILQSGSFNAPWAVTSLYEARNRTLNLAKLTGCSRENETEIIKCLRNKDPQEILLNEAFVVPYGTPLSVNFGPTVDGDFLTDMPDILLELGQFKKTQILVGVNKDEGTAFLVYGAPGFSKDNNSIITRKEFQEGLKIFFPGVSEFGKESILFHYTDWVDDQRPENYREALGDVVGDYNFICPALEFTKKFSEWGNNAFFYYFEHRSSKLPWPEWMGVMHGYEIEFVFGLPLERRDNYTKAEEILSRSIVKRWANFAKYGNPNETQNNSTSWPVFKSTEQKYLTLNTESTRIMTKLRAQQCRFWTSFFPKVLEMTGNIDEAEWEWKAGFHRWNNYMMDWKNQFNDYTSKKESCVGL

Row | Structure (SMILES) | Inhibitory activity (%) against Trypsin (Trypsin; compound 50 µM) | Inhibitory activity (%) against Trypsin (Trypsin; compound 100 µM) | AChE Inhibition Type (AChE) | IC50 (AChE) | Ki (AChE) | Inhibitory activity (%) against Elastase (Elastase; compound 50 µM) | Inhibitory activity (%) against Elastase (Elastase; compound 100 µM) | BChE Inhibition Type (BChE) | IC50 (BChE) | Ki (BChE) | Inhibitory activity (%) against Chymotrypsin (Chymotrypsin; compound 50 µM) | Inhibitory activity (%) against Chymotrypsin (Chymotrypsin; compound 100 µM) | Inhibitory activity (%) against BACE1 (BACE1; compound 50 µM) | Inhibitory activity (%) against BACE1 (BACE1; compound 100 µM)
1 | O=C1OC(c2ccc(O)cc2)Cc2cc(O)cc(O)c21 (centres unmarked) [TC, thunberginol C] | −0.27 ± 1.51% | 0.07 ± 2.00% | Non-competitive | 42 ± 1.06 µM | 45.6 µM | 1.89 ± 1.09% | 0.42 ± 0.36% | Non-competitive | 42.4 ± 3.67 µM | 49.2 µM | 6.04 ± 2.42% | 8.50 ± 1.40% | 25.81 ± 3.11% | 28.68 ± 1.87%
2 | COc1ccc2c3c1O[C@H]1C[C@@H](O)C=C[C@@]31CCN(C)C2 [Galantamine, reference compound] | – | – | – | – | – | – | – | Competitive | – | – | – | – | – | –
3 | CC(=O)OC[C@H]1O[C@@H](Oc2cccc3c2C(=O)O[C@@H](c2ccc(OC(C)=O)cc2)C3)[C@H](OC(C)=O)[C@@H](OC(C)=O)[C@@H]1OC(C)=O [HGP, hydrangenol 8-O-glucoside pentaacetate] | 1.26 ± 3.36% | 3.12 ± 1.69% | Non-competitive | 22.7 ± 1.63 µM | 36.1 µM | 3.77 ± 1.66% | 1.47 ± 1.31% | Non-competitive | 41 ± 3.03 µM | 44.9 µM | 7.16 ± 3.38% | 5.15 ± 3.70% | 20.02 ± 0.52% | 25.21 ± 1.60%
